The structures appear in SMILES notation.

Holding throughout (type): in vivo
Data set [1] deals with Green Peach Aphid (GPA) (Myzus persicae). Briefly: Bioassay on green peach aphid (GPA), foliar spray on cabbage seedlings. Conditions: green peach aphid, 200 ppm, read-out: % Mortality GPA 200 ppm. In short, it runs like this:
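Cabbage seedlings (2-3 true leaves), each infested a day earlier with 20-50 wingless adult and nymph GPA, were sprayed on both leaf sides to runoff, four pots per treatment. Corrected % control was calculated against solvent-check plants.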

In data set [2] the test system is Beet Armyworm (BAW) (Spodoptera exigua). Briefly: Bioassay on beet armyworm (BAW), 128-well diet tray assay. The settings on record: beet armyworm, 50 μg/cm^2; for mortality at 50 µg/cm2: Spodoptera exigua, read-out: % Mortality BAW 50 μg/cm^2.
Data set [3] concerns Corn Earworm (CEW) (Helicoverpa zea). Kind of data set: Bioassay on corn earworm (CEW), 128-well diet tray assay. Conditions: corn earworm, 50 μg/cm^2; for mortality at 50 µg/cm2: Helicoverpa zea, read-out: % Mortality CEW 50 μg/cm^2. In outline: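 Larvae in a 128-well diet tray were held at 25° C under 14:10 light-dark for five to seven days. Percent mortality was scored per well and averaged over eight wells, then reported on a rating scale.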

Take `CCOc1ccccc1N1CCCS/C1=N\N=C\c1ccc(-c2ncn(-c3ccc(OC(F)(F)F)cc3)n2)cc1` [Compound 208C]: the mortality at 200 ppm in data set [1] stood at 0%. For the same compound, the mortality at 50 µg/cm2 in data set [2] and in data set [3] was 50 to 100% throughout.

Regarding `COc1cc(C)c(/N=C(/N/N=C/c2ccc(-c3ncn(-c4ccc(OC(F)(F)F)cc4)n3)cc2)SCC(=O)C2CCNCC2)c(C)c1` [Compound 65C], in data set [1], the mortality at 200 ppm lay within 0 to 80%. The mortality at 50 µg/cm2 in data set [2] and in data set [3] was 50 to 100% throughout.

Consider `Cc1cccc(C)c1/N=C(/N/N=C/c1ccc(-c2ncn(-c3ccc(OC(F)(F)F)cc3)n2)cc1)SCOC(=O)OC(C)C` [Compound 24C], for which the mortality at 200 ppm in data set [1] is 0 to 80%. For the same compound, the mortality at 50 µg/cm2 in data set [2] and in data set [3] was 50 to 100% throughout.

For `FC(F)(F)Oc1ccc(-n2cnc(-c3ccc(/C=N/N=C4\SCCCN4c4c(Cl)cccc4C(F)(F)F)cc3)n2)cc1` [Compound 190C], the mortality at 200 ppm in data set [1] lay in the range of 0 to 80%. The mortality at 50 µg/cm2 in data set [2] and in data set [3] was 50 to 100% each time.

For the compound `Cc1cccc(C)c1/N=C(/N/N=C/c1ccc(-c2ncn(-c3ccc(OC(F)(F)F)cc3)n2)cc1)SCC(=O)O` [Compound 47C], the mortality at 200 ppm in data set [1] lay within 0 to 80%. The mortality at 50 µg/cm2 in data set [2] and in data set [3] was 50 to 100% in each case.

On to `CC(C)Cc1ccccc1N1C(=O)CS/C1=N\N=C\c1ccc(-c2ncn(-c3ccc(OC(F)(F)F)cc3)n2)cc1` [Compound 119C], for which the mortality at 200 ppm in data set [1] turned out to be 0%. The mortality at 50 µg/cm2 in data set [2] and in data set [3] was 50 to 100% each time.

Take `CC(C)c1ccccc1N1/C(=N/N=C/c2ccc(-c3ncn(-c4ccc(OC(F)(F)F)cc4)n3)cc2)SC(C)C1(C)O` (stereo not drawn) [Compound 257C]: the mortality at 200 ppm in data set [1] was found to be 0%. The mortality at 50 µg/cm2 in data set [2] and in data set [3] was 50 to 100% in each case.

`Cc1cccc(C)c1/N=C(/N/N=C/c1ccc(-c2ncn(-c3ccc(OC(F)(F)F)cc3)n2)cc1)SCc1c(-c2ccccc2)noc1C` [Compound 20C]: the mortality at 200 ppm in data set [1] was found to be 0%. Besides, the mortality at 50 µg/cm2 in data set [2] and in data set [3] was 50 to 100% throughout.

As to `COc1cc(C)c(/N=C(/N/N=C/c2ccc(-c3ncn(-c4ccc(OC(F)(F)F)cc4)n3)cc2)SCC(=O)O)c(C)c1.[Na+]` [Compound 68C, 2-(((Z)-((4-methoxy-2,6-dimethylphenyl)imino)((E)-2-(4-(1-(4-(trifluoromethoxy)phenyl)-1H-1,2,4-triazol-3-yl)benzylidene)hydrazinyl)methyl)-thio)acetic acid sodium salt], the mortality at 200 ppm in data set [1] lay in the range of 0 to 80%. In addition, the “% Mortality BAW 50 μg/cm^2” value in data set [2] is reported as “A (50-100)”. The “% Mortality CEW 50 μg/cm^2” value in data set [3] is reported as “A (50-100)”.

Consider `Cc1cccc(C)c1/N=C(/N/N=C/c1ccc(-c2ncn(-c3ccc(OC(F)(F)C(F)(F)F)cc3)n2)cc1)SCC(=O)O` [Compound 49C], for which the mortality at 200 ppm in data set [1] lay within 0 to 80%. Further, the mortality at 50 µg/cm2 in data set [2] and in data set [3] was 50 to 100% each time.

As to `Cc1cccc(C)c1/N=C(/N/N=C/c1ccc(-c2ncn(-c3ccc(OC(F)(F)F)cc3)n2)cc1)SCC(=O)NCC(C)C` [Compound 55C], the mortality at 200 ppm in data set [1] was found to be 0%. Besides, the mortality at 50 µg/cm2 in data set [2] and in data set [3] was 50 to 100% in each case.

With `CC(C)c1ccccc1N1CCCS/C1=N\N=C\c1ccc(-c2ncn(-c3ccc(OC(F)(F)F)cc3)n2)cc1` [Compound 177C], the mortality at 200 ppm in data set [1] was 0%. Besides, the mortality at 50 µg/cm2 in data set [2] and in data set [3] was 50 to 100% in each case.

As for `O=C1CS/C(=N\N=C\c2ccc(-c3ncn(-c4ccc(OC(F)(F)F)cc4)n3)cc2)N1c1ccccc1-c1ccccc1` [Compound 96C], the mortality at 200 ppm in data set [1] lay within 0 to 80%. The mortality at 50 µg/cm2 in data set [2] and in data set [3] was 50 to 100% in each case.

Consider `Cc1cccc(C)c1/N=C(/N/N=C/c1ccc(-c2ncn(-c3ccc(OC(F)(F)F)cc3)n2)cc1)SCC(=O)NC[C@@H]1CCCNC1` [Compound 62C, (1Z,2E)-2-oxo-2-(((R)-piperidin-3-ylmethyl)amino)ethyl N-(2,6-dimethylphenyl)-2-(4-(1-(4-(trifluoromethoxy)phenyl)-1H-1,2,4-triazol-3-yl)benzylidene)hydrazinecarbimidothioate trifluoroacetic acid], for which the mortality at 200 ppm in data set [1] was in the range of 0 to 80%. Moreover, the mortality at 50 µg/cm2 in data set [2] and in data set [3] was 50 to 100% throughout.

For the compound `Cc1cccc(C)c1/N=C(/N/N=C/c1ccc(-c2ncn(-c3ccc(OC(F)(F)F)cc3)n2)cc1)SCc1cc2c(C(F)(F)F)nn(C)c2s1` [Compound 19C], the mortality at 200 ppm in data set [1] was in the range of 0 to 80%. Also, the mortality at 50 µg/cm2 in data set [2] and in data set [3] was 50 to 100% in each case.

Consider `COc1cc(C)c(-n2c(C(=O)O)cs/c2=N\N=Cc2ccc(-c3ncn(-c4ccc(OC(F)(F)F)cc4)n3)cc2)c(C)c1` [Compound 80C], for which the mortality at 200 ppm in data set [1] was determined as 0%. Besides, the mortality at 50 µg/cm2 in data set [2] and in data set [3] was 50 to 100% in each case.

As to `COc1ccccc1N1CCCS/C1=N\N=C\c1ccc(-c2ncn(-c3ccc(OC(F)(F)F)cc3)n2)cc1` [Compound 191C], in data set [1], the mortality at 200 ppm worked out at 0%. Moreover, the mortality at 50 µg/cm2 in data set [2] and in data set [3] was 50 to 100% in each case.

Take `CC1CS/C(=N\N=C\c2ccc(-c3ncn(-c4ccc(OC(F)(F)F)cc4)n3)cc2)N1c1ccccc1OC(F)(F)F` (stereo not drawn) [Compound 168C]: in data set [1], the mortality at 200 ppm was 0%. In addition, the mortality at 50 µg/cm2 in data set [2] and in data set [3] was 50 to 100% each time.

With `Cc1cccc(C)c1/N=C(/N/N=C/c1ccc(-c2ncn(-c3ccc(OC(F)(F)F)cc3)n2)cc1)SCc1ccc(S(C)(=O)=O)cc1` [Compound 17C], the mortality at 200 ppm in data set [1] was in the range of 0 to 80%. The mortality at 50 µg/cm2 in data set [2] and in data set [3] was 50 to 100% each time.

Consider `CC(C)=Cc1ccccc1N1CCS/C1=N\N=C\c1ccc(-c2ncn(-c3ccc(OC(F)(F)F)cc3)n2)cc1` [Compound 151C], for which the mortality at 200 ppm in data set [1] was in the range of 0 to 80%. Moreover, the mortality at 50 µg/cm2 in data set [2] and in data set [3] was 50 to 100% throughout.

Regarding `CCc1cccc(C)c1N1CCS/C1=N\N=C\c1ccc(-c2ncn(-c3ccc(OC(F)(F)F)cc3)n2)cc1` [Compound 136C], the mortality at 200 ppm in data set [1] is 0%. Moreover, the mortality at 50 µg/cm2 in data set [2] and in data set [3] was 50 to 100% in each case.

Regarding `COc1ccc(N2CCCS/C2=N\N=C\c2ccc(-c3ncn(-c4ccc(OC(F)(F)F)cc4)n3)cc2)c(C)c1` [Compound 192C], the mortality at 200 ppm in data set [1] lay within 0 to 80%. Besides, the mortality at 50 µg/cm2 in data set [2] and in data set [3] was 50 to 100% in each case.

Take `Cc1cccc(Cl)c1N1/C(=N/N=C/c2ccc(-c3ncn(-c4ccc(OC(F)(F)F)cc4)n3)cc2)SCC1(C)O` (stereo not drawn) [Compound 244C]: the mortality at 200 ppm in data set [1] was found to be 0%. For the same compound, the mortality at 50 µg/cm2 in data set [2] and in data set [3] was 50 to 100% each time.

Consider `Cc1cccc(Cl)c1N1/C(=N/N=C/c2ccc(-c3ncn(-c4ccc(OC(F)(F)F)cc4)n3)cc2)SCC1C` (stereo not drawn) [Compound 158C], for which the mortality at 200 ppm in data set [1] fell in the range of 0 to 80%. The mortality at 50 µg/cm2 in data set [2] and in data set [3] was 50 to 100% each time.

On to `CC(C)c1cccc(F)c1N1/C(=N/N=C/c2ccc(-c3ncn(-c4ccc(OC(F)(F)F)cc4)n3)cc2)SCC1(C)O` (stereo not drawn) [Compound 250C], for which the mortality at 200 ppm in data set [1] lay in the range of 0 to 80%. In addition, the mortality at 50 µg/cm2 in data set [2] and in data set [3] was 50 to 100% each time.

Turning to `COCCOC(C)C(=O)OCS/C(=N\c1c(C)cc(OC)cc1C)N/N=C/c1ccc(-c2ncn(-c3ccc(OC(F)(F)F)cc3)n2)cc1` (stereo not drawn) [Compound 42C], the mortality at 200 ppm in data set [1] was 0%. Moreover, the mortality at 50 µg/cm2 in data set [2] and in data set [3] was 50 to 100% each time.

`COc1cc(C)c(/N=C(/N/N=C/c2ccc(-c3ncn(-c4ccc(OC(F)(F)C(F)(F)F)cc4)n3)cc2)SCC(=O)O)c(C)c1` [Compound 51C]: the mortality at 200 ppm in data set [1] was 0%. Moreover, the mortality at 50 µg/cm2 in data set [2] and in data set [3] was 50 to 100% each time.

For `CC(=O)OCS/C(=N\c1c(C)cccc1C)N/N=C/c1ccc(-c2ncn(-c3ccc(OC(F)(F)F)cc3)n2)cc1` [Compound 31C], the mortality at 200 ppm in data set [1] is 0 to 80%. Moreover, the mortality at 50 µg/cm2 in data set [2] and in data set [3] was 50 to 100% each time.

In the case of `COc1ccc(C)cc1N1CCCS/C1=N\N=C\c1ccc(-c2ncn(-c3ccc(OC(F)(F)F)cc3)n2)cc1` [Compound 204C], in data set [1], the mortality at 200 ppm is 0 to 80%. The mortality at 50 µg/cm2 in data set [2] and in data set [3] was 50 to 100% in each case.

For `COc1cc(C)c(/N=C(/N/N=C/c2ccc(-c3ncn(-c4ccc(OC(F)(F)C(F)(F)F)cc4)n3)cc2)SCOC(=O)C(C)C)c(C)c1` [Compound 37C], the mortality at 200 ppm in data set [1] is 0%. The mortality at 50 µg/cm2 in data set [2] and in data set [3] was 50 to 100% throughout.

As for `FC(F)(F)Oc1ccc(-n2cnc(-c3ccc(/C=N/N=C4\SCCCN4c4ccccc4-c4ccccc4)cc3)n2)cc1` [Compound 194C], the mortality at 200 ppm in data set [1] lay within 0 to 80%. The mortality at 50 µg/cm2 in data set [2] and in data set [3] was 50 to 100% in each case.

For `CC(/N=C(/N/N=C/c1ccc(-c2ncn(-c3ccc(OC(F)(F)F)cc3)n2)cc1)SCC(=O)O)c1ccccc1` (stereo not drawn) [Compound 54C], the mortality at 200 ppm in data set [1] was determined as 0%. In addition, the mortality at 50 µg/cm2 in data set [2] and in data set [3] was 50 to 100% throughout.
